Results taken from patent US20230128198A1, “NOVEL HETEROCYCLIC COMPOUNDS USEFUL AS AURORA A SELECTIVE INHIBITORS” (JACOBIO PHARMACEUTICALS CO., LTD., priority 2020, published 2023).

Legend:
[1] = system: NCI-H446 and NCI-H69 human small cell lung cancer xenograft model; test: In vivo anti-tumor efficacy, xenograft model; design: species or system BALB/c nude mice; settings: 15 mg/kg po., BID × 10 days, QD × 19 days, treatment 29 days
Experimental: This study is to examine the anti-tumor efficacy of test compounds in NCI-H446 and NCI-H69 human small cell lung cancer xenograft model in BALB/c nude mice. Each mouse was inoculated subcutaneously at the right flank region with NCI-H446 (3×10^6) and NCI-H69 cells (5×10^6) in 0.1 mL of PBS and Matrigel (1:1) for tumor development. The mouse were randomized according to tumor size and weight, the treatment began when the mean tumor size reached 100-200 mm^3. Anti-tumor activity was assessed according to relative tumor inhibition rate (TGI).
Tumor volumes were measured in two dimensions using a caliper, and the volume was expressed in mm^3 using the formula: V=0.5a×b^2 where a and bare the long and short diameters of the tumor, respectively. Statistical analysis of difference in tumor volume among the groups were performed using one-way ANOVA. All data was analyzed using SPSS 22.0 software. p<0.05 was considered to be statistically significant.

Aurora A = molecular target: T1, Aurora A (Homo sapiens, UniProt O14965); test: Aurora A kinase assay (mobility shift assay); format: biochemical
T1 sequence (O14965 1-403): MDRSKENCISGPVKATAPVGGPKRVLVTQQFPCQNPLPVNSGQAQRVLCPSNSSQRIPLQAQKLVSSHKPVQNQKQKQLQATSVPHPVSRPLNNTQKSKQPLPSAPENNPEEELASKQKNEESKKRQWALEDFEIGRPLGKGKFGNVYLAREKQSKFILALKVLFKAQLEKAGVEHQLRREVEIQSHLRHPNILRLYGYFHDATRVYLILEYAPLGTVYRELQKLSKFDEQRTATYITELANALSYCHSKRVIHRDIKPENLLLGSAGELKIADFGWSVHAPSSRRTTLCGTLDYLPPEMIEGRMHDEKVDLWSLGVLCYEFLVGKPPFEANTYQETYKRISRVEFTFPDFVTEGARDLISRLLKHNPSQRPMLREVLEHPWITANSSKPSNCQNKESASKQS
Experimental: (§1) Example A: Evaluation of Aurora a and Aurora B Inhibitory Effect—Kinase Assay
(§2) The inhibitory activities of a test compound against Aurora A and Aurora B were measured according to the following method.
(§3) The IC50 value of Aurora A and Aurora B kinase was performed by Sundia MediTech Co. Ltd. using Mobility shift assay.
(§4) • (1) Prepare a 1× kinase buffer [50 mM 4-(2-hydroxyethyl)-1-piperazineethanesulfonic acid (HEPES), PH 7.5, 0.01% Brij-35, 10 mM MgCl2, 2 mM dithiothreitol (DTT)]. • (2) Prepare compound:
The testing compound was dissolved with DMSO. The testing compound was diluted up to 100× final concentration in a 384-well plate. Transfer 250 nL of the compound dilution to a 384-well assay plate using Echo 550. […] Add 10 μL of the 1× kinase buffer to the negative control well. • (5) The 384-well plate was centrifuged at 1000 rpm for 30 seconds and incubated at room temperature for 10 min. • (6) A mixture of ATP and Kinase substrate 21 with a final concentration of 25/15× was prepared by the 1× kinase buffer. • (7) Add 15 µL of the mixture of 25/15×ATP and kinase substrate solution 21 to start reaction. • (8) The 384-well plate was centrifuged at 1000 rpm for 30 seconds and incubated at room temperature. • (9) 30 µL of the stop and detection buffer was added to stop the kinase reaction and centrifuged at 1000 rpm for 30 seconds. • (10) Collect data on Caliper EZ ReaderII. […]

Aurora B = Aurora B (Homo sapiens, UniProt Q96GD4); test: Aurora B kinase assay (mobility shift assay); format: biochemical; settings: ratio of Aurora B IC50 to Aurora A IC50
Experimental: as §1, §2, §3, §4
The testing compound was dissolved with DMSO. The testing compound was diluted up to 100× final concentration in a 384-well plate. Transfer 250 nL of the compound dilution to a 384-well assay plate using Echo 550. 100% DMSO of 250 nL was added to the negative control well and the positive control well. • (3) Prepare a 2.5× enzyme solution using the above 1× kinase buffer. • (4) Add 10 μL of the 2.5× enzyme solution to the compound well and the positive control well of the 384-well assay plate.
Conversion %_sample is conversion rate data of samples. Conversion %_min is mean value of negative control (conversion rate data without enzyme activation). Conversion %_max is mean positive control (conversion rate data without compound).
The log of concentration is on the X axis, and the percentage inhibition is on the Y axis.

PK in rat = format: in vivo, SD male rats
Experimental: The compounds were dissolved into 10% DMSO, 30% PEG400, and 60% saline to obtain a solution. SD male rats were given the compound orally and intravenously. Then plasma samples were collected at 0 hour (pre-dose), 0.25, 0.5, 1, 2, 4, 7, 24 hours post-dose. Plasma drug concentration was detected by LC-MS/MS. Pharmacokinetic parameters were calculated using WinNonlin's software with non-compartmental model.

Chain of Aurora B (Q96GD4 whole entry): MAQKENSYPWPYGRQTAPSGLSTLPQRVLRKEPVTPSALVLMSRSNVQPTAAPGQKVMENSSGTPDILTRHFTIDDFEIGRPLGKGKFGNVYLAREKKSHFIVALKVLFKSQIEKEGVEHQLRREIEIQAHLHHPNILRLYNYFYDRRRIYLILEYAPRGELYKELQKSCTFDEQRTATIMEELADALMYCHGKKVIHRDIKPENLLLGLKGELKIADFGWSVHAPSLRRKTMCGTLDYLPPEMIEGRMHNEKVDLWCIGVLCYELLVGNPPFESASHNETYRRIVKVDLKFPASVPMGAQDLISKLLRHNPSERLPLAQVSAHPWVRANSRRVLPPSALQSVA

Cc1cc(Nc2nc(C[C@@]3(C(=O)O)CCN(Cc4cccc(Cl)c4F)[C@H](C)C3)ccc2F)[nH]n1 [Example 5, (2R,4R)-1-(3-chloro-2-fluorobenzyl)-4-((5-fluoro-6-((3-methyl-1H-pyrazol-5-yl)amino)pyridin-2-yl)methyl)-2-methylpiperidine-4-carboxylic acid]
TGI TV(%) [1]: 98% | TV (mean ± sem) [1]: 27 ± 5 mm^3

Cc1cc(Nc2cc(C)c(F)c(C[C@@]3(C(=O)O)CCN(Cc4cccc(Cl)c4F)[C@H](C)C3)n2)n[nH]1 [Example 49, (2R,4R)-1-(3-chloro-2-fluorobenzyl)-4-((3-fluoro-4-methyl-6-((5-methyl-1H-pyraz-ol-3-yl)amino)pyridin-2-yl)methyl)-2-methylpiperidine-4-carboxylic acid]
TGI TV(%) [1]: 90% | TV (mean ± sem) [1]: 160 ± 26 mm^3

CC(=O)c1cc(Nc2cc(C)[nH]n2)nc(CC2(C(=O)O)CCN(Cc3cccc(Cl)c3F)CC2)c1F [Example 69, 4-((4-acetyl-3-fluoro-6-((5-methyl-1H-pyrazol-3-yl)amino)pyridin-2-yl)methyl)-1-(3-chloro-2-fluorobenzyl) piperidine-4-carboxylic acid]
IC50 (Aurora A): 0.91 nM | IC50 Ratio Aur B/Aur A (Aurora B): 1444

Cc1cc(Nc2cc(Cl)c(F)c(C[C@@]3(C(=O)O)CCN(Cc4cccc(Cl)c4F)[C@H](C)C3)n2)n[nH]1 [Example 72, (2R,4R)-1-(3-chloro-2-fluorobenzyl)-4-((4-chloro-3-fluoro-6-((5-methyl-1H-pyrazol-3-yl)amino)pyridin-2-yl)methyl)-2-methylpiperidine-4-carboxylic acid]
TGI TV(%) [1]: 89% | TV (mean ± sem) [1]: 176 ± 25 mm^3

Cc1cc(Nc2nc(C[C@@]3(C(=O)O)CCN(Cc4cccc(Cl)c4F)[C@H](C)C3)cc(C)c2F)n[nH]1 [Example 78, (2R,4R)-1-(3-chloro-2-fluorobenzyl)-4-((5-fluoro-4-methyl-6-((5-methyl-1H-pyrazol-3-yl)amino)pyridin-2-yl)methyl)-2-methylpiperidine-4-carboxylic acid]
TGI TV(%) [1]: 96% | TV (mean ± sem) [1]: 65 ± 14 mm^3

Cc1cc(Nc2ccc(F)c(C[C@@]3(C(=O)O)CCN(Cc4cccc(Cl)c4F)[C@H](C)C3)n2)n[nH]1 [LY3295668]
CL (PK in rat; IV: 3 mg/kg): 1.52 mL/min/kg | Vss (PK in rat; IV: 3 mg/kg): 0.29 L/kg | AUClast (PK in rat; PO: 10 mg/kg): 91211 ng·h/mL | Cmax (PK in rat; PO: 10 mg/kg): 15033 ng/mL | t½ (PK in rat; PO: 10 mg/kg): 3.37 h | F % (PK in rat; PO: 10 mg/kg vs IV: 3 mg/kg): 81%
